From patent US20090227606A1, “Methods for Preventing or Treating Acute and Chronic Pain” (priority 2006, published 2009)
Entries after “also recorded” stand apart in the source; their conditions may differ.

What was measured:
adenosine transport = details: literature; cited from earlier work
GLT-1 [1] = test: Western blot of cultured astrocytes, GLT-1 protein; type: cell-based, rat
Procedure: After approximately 14 days (2 days after subplating into plates, DIV 14) astrocytes had formed a confluent monolayer. […] Phase contrast microscopy was then carried out in order to assess the morphology of cells after the various treatments. Length of astrocyte processes was quantified by measuring all processes in 2-3 phase contrast images/group by an independent observer, blinded to the treatment groups using Image J v1.34s (National Institutes of Health, Bethesda, Md.).
Cells were scraped into PBS containing a protease inhibitor cocktail (1:1000, Sigma Chemical Co., St. Louis, Mo.) and then lysed by sonication in 5 one-second pulses. The samples were stored at −80° C. until use. Total protein was determined using the Lowry method (DC assay, Bio-Rad, Hercules, Calif.). Forty micrograms of protein (diluted in sample buffer and boiled) and standard protein markers were subjected to SDS/7.5% polyacrylamide gel electrophoresis and transferred to polyvinylidene difluoride (PVDF) membranes. Nonspecific binding was blocked by incubation with 5% milk/PBS-Tween at room temperature for 1 hour followed by incubation overnight at 4° C. with rabbit anti-GLT-1 (1:500) or guinea pig anti-GLAST (1:2500). The following day, blots were washed and incubated for 1 hour at room temperature with goat anti-rabbit HRP-conjugated secondary (1:3000) or goat anti-guinea pig HRP-conjugated secondary antibody (1:5000) and visualized with enhanced chemiluminescence (ECL). Images were obtained using the Typhoon Imaging System (Amersham-GE Healthcare, Piscataway, N.J.). Finally, blots were incubated for 15 minutes in stripping buffer and reprobed with a monoclonal mouse anti-β-actin antibody (1:10,000) as a loading control. Densitometric analysis was performed using ImageQuant 5.2 (Molecular Dynamics, GE Healthcare, Piscataway, N.J.).

GLT-1 [2] = test: Immunohistochemistry of rat lumbar spinal cord, GLT-1; type: in vivo; details: day 12 post-transection, ipsilateral vs contralateral
Procedure: (§1) For assessment of GFAP, GLT-1 and GLAST immunoreactivity, a separate group of rats (n=4/treatment) were anesthetized and transcardially perfused with 0.1 M PBS (phosphate-buffered saline), pH 7.4, followed by 4% paraformaldehyde in PBS on day 12 post-L5 spinal nerve transection. Lumbar spinal cord sections were identified, isolated, and processed as described previously (Colburn, R. W. et al. 1997. J. Neuroimmunol. 79:163-175). Free-floating, […] were cut in a cryostat and processed for immunofluorescence. Sections were blocked with 5% FBS/0.1% Triton-X 100 for 1 hour at room temperature (RT). For double immunofluorescence, spinal sections were incubated with a mixture of rabbit polyclonal anti-GLT-1 (1:500) or guinea pig anti-GLAST (1:5000, Chemicon, Temecula, Calif.), and mouse anti-GFAP G-A-5 (astrocyte marker, 1:400, Sigma Chemical Co., St. Louis, Mo.) in 3% FBS/0.1% triton-X 100/TBS over night at 4° C., washed, incubated in a mixture of goat anti-rabbit Alexa Fluor™-555 and goat anti-mouse Alexa Fluor™-488 (1:250, Molecular Probes, Eugene, Oreg.) secondary antibodies in 3% FBS/0.1% triton-X 100/TBS for 1 hour at RT. To control for nonspecific staining, control sections were incubated in the absence of primary antibodies. The sections were examined with a fluorescence microscope, and images were captured with a Q-Fire cooled camera. […]

GLAST = test: Immunohistochemistry of rat lumbar spinal cord, GLAST; type: in vivo; details: day 12 post-transection, ipsilateral side
Procedure: as §1

[3] = system: L5 spinal nerve transected rats; test: Mechanical allodynia after L5 spinal nerve transection in rats; type: in vivo, rat
Procedure: Male Sprague Dawley rats (Harlan, Indianapolis, Ind.) weighing 150-175 g at the start of surgery were housed individually and maintained in a 12:12 light/dark cycle with ad libitum access to food and water. The animals were allowed to habituate to the housing facilities for 1 week before experiments began. Behavioral studies were performed in a quiet room between the hours of 7:00 and 10:00 A.M. The Institutional Animal Care and Use Committee at Dartmouth College approved all procedures in this study. Efforts were made to limit animal distress and use the minimum number of animals necessary to achieve statistical significance, in accord with guidelines set forth by the International Association for the Study of Pain.
Unilateral mononeuropathy was produced according to the method described by Colburn et al. (1999. Exp. Neurol. 157:289-304). Briefly, rats were anesthetized by inhalation of halothane in an O2 carrier (induction, 4%; maintenance, 2%). […] The L6 transverse process was partially removed, exposing the L4 and L5 spinal nerves. The L5 spinal nerve was identified, separated, lifted, and transected, followed by removal of a 3-mm distal segment of nerve to prevent reconnection. […]
Mechanical sensitivity to non-noxious stimuli was measured by applying 2 g and 12 g von Frey filaments (Stoelting, Wood Dale, Ill.) to the plantar surface of the ipsilateral hind paw (n=8-12/group). […]

astrocytic activation = details: DeLeo et al. 1987; cited from earlier work
cultured astrocytes = test: Reversibility of astrocyte phenotype change after 7 day washout; type: cell-based, rat; details: 7 days treatment (high dose), then 7 day washout in control media
Procedure: In order to ensure that the morphological effects of propentofylline on astrocytes were due to specific pharmacological effects and not due to toxicity, experiments were performed to determine if the phenotype change observed was reversible.

CCCn1cnc2c1c(=O)n(CCCCC(C)=O)c(=O)n2C [propentofylline]
adenosine transport (adenosine transport): inhibit adenosine transport
GLT-1 protein level, in words (GLT-1 [1]; 3 or 7 days, normalized to β-actin): dose-dependently increased levels of GLT-1 protein
increase in GLT-1 protein levels (GLT-1 [1]; 7 days, high dose): 100 fold
increase in GLT-1 protein levels (GLT-1 [1]; after 3 days of treatment): about 10 fold
GLT-1 immunoreactivity in dorsal horn (GLT-1 [2]): no qualitative difference in GLT-1 between ipsilateral and contralateral dorsal horns
GLAST immunoreactivity in dorsal horn (GLAST): did not enhance GLAST immunoreactivity on the ipsilateral side
mechanical allodynia (paw withdrawals to 12 g von Frey filament) ([3]; 10 μg daily via lumbar puncture, from one hour prior to transection, vs. L5 saline): significant decrease in mechanical allodynia; also recorded: robustly inhibited the development of mechanical allodynia at all time points tested
mechanical allodynia compared with normal group ([3]; from day 5 onward (day 5, 7, 9 and 12), P>0.05): no longer discernable from the normal group
astrocytic activation (astrocytic activation): attenuate astrocytic activation
reversibility of morphological change (cultured astrocytes): reversal was more complete in propentofylline-treated cells
